One data set concerns the target T1, UGT1A1 (Homo sapiens, UniProt P22309).
T1 construct: host or cells: Schizosaccharomyces pombe
T1 sequence (P22309 26-533): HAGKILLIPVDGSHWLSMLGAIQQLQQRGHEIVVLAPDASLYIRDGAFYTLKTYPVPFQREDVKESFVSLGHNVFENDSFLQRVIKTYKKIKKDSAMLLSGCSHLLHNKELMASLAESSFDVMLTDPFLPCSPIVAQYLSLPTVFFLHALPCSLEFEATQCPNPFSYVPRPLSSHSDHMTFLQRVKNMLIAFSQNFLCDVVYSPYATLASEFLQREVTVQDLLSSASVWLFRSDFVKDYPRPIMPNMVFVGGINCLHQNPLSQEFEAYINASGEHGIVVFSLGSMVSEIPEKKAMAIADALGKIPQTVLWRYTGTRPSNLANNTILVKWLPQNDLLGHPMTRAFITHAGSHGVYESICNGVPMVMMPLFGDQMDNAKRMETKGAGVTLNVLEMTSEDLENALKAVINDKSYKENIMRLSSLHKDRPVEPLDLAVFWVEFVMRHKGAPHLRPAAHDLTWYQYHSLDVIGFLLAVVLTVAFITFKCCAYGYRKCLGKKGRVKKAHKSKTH
The conditions noted are these: fission yeast, Dragan et al.; cited from earlier work.

The target in the next data set is T2, hUGT1A1 (Homo sapiens, UniProt P22309).
T2 sequence (P22309 28-533): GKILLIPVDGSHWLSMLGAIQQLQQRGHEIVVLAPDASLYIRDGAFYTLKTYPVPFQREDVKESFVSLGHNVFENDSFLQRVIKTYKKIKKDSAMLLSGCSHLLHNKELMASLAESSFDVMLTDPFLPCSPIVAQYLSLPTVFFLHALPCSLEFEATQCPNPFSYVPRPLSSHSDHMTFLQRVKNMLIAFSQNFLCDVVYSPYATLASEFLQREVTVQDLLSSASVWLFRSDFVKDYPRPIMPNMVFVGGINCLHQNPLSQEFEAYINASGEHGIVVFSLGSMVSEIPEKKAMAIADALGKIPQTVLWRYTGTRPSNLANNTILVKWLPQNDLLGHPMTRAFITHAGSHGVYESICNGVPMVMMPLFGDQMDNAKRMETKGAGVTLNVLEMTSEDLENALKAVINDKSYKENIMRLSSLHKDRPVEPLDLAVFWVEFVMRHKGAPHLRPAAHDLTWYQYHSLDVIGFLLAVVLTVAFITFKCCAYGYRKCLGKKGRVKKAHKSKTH
The experiment in a line: Glucuronide production in resting S. cerevisiae AH22 cells co-expressing UDPGDH and UGT1A1. To be noted: UGT1A1.

For data set [1], the target named is T3, UGT1A6 (Homo sapiens, UniProt P19224).
T3 sequence (P19224 27-532): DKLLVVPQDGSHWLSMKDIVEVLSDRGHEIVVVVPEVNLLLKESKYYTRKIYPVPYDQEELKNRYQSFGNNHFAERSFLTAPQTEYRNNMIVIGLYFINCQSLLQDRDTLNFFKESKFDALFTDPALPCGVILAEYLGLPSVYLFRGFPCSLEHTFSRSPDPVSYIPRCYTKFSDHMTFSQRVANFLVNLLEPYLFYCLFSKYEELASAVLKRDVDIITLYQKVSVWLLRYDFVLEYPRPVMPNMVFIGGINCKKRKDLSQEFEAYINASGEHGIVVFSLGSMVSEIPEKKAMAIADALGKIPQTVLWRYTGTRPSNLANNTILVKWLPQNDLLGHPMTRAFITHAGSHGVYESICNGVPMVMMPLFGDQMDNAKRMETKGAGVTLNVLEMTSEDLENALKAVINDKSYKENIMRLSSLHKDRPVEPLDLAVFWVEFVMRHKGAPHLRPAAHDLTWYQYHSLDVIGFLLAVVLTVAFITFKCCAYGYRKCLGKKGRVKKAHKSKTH
The experiment in a line: Glucuronide production in resting S. cerevisiae AH22 cells co-expressing UDPGDH and UGT1A6. To be noted: UGT1A6. Details: expressed in transfected cells; host or cells: Saccharomyces cerevisiae AH22. It is filed as cell-based. As for the experimental part: Each phase was analyzed by UPLC system.
Time course of conversion in the transformant with the highest activity of glucuronidation (AH22: pAUR/At.UDPGDH+pGYR/hUGT1A6) was examined (FIG. 6).
Glucose concentration dependence of conversion in the transformant with the highest activity of glucuronidation (AH22: pAUR/At.UDPGDH+pGYR/hUGT1A6) was examined (FIG. 7).

In data set [2] the target is T3, UGT1A6. Also noted: host or cells: Schizosaccharomyces pombe. The conditions noted are these: fission yeast, Dragan et al.; cited from earlier work.
The target of a further data set is T4, CYP2D6 and UGT1A8 (Homo sapiens, UniProt P10635).
T4 construct: expressed in transfected cells; host or cells: Saccharomyces cerevisiae
The data set is described as follows: Resting yeast cells with UDPGDH, human UGT and human P450. The data set is classed as cell-based. To be noted: human P450 2D6 and human UGT1A8; 1 mM 7-ethoxycoumarine. As to the method:
To achieve the sequential production of hydroxyl intermediate and glucuronidation, co-expression yeast system containing UDPGDH, UGT, and P450 was constructed using combination of expression vectors (pAUR-ratUDPGDH/UGT1A6 and pPYR/humanCYP).
Each phase was analyzed by UPLC system (FIG. 15 and Table 7).
FIG. 15 indicated reverse phase HPLC elution pattern of metabolites from 7-ethoxycoumarine using resting yeast cells containing UDPGDH, human UGT1A8, and human P450 2D6. […] Each hydroxyl intermediates further were metabolized to corresponding glucuronides by human UGT1A8.

Another data set concerns the target T5, ratCYP1A1 and UGT1A6 (UniProt P00185+P19224).
T5 construct: expressed in transfected cells; host or cells: Saccharomyces cerevisiae AH22
T5 sequence (P00185 2-524): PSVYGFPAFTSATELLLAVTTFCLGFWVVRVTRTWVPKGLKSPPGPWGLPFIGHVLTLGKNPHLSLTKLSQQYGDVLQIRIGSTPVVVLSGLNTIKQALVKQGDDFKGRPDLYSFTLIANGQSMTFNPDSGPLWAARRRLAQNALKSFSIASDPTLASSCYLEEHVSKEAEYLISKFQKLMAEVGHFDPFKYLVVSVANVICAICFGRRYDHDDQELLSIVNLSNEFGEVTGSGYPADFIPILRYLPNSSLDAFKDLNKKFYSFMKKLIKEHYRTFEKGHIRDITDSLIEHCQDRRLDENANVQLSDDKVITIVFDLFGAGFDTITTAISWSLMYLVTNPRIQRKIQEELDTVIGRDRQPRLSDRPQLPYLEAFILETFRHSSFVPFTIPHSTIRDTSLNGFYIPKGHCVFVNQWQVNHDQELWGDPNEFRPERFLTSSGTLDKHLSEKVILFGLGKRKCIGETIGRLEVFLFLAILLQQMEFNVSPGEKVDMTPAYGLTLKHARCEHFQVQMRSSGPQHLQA
T5 sequence (P19224 27-532): T3 sequence (P19224 27-532)
The data set is described as follows: Resting yeast cells co-expressing UDPGDH, UGT1A6 and rat CYP1A1. The data set is classed as cell-based. To be noted: 1 mM 7-ethoxycoumarine, 8% glucose, 30° C., 72 hrs. The source says:
In the precursor of most glucuronide, hydroxyl groups are introduced by P450-dependent monooxynenation. To analyze the structure and function of these xenobiotic metabolizing enzymes the expression system of several mammalian P450 and UGT isoforms was constructed in budding yeast cells, Saccharomyces cerevisiae AH22. This in vitro system is able to convert 7-ethoxycoumarine to its glucuronide via hydroxyl intermediate, 7-hydroxycoumarine (Ref 6). Yeast cells lack the ability of production of UDP-glucuronic acid (UDP-GlcUA) from UDP-glucose to synthesize the glucuronide in whole cells. To achieve the sequential production of hydroxyl intermediate and glucuronidation, co-expression yeast system containing UDPGDH, UGT, and P450 was constructed using combination of expression vectors (pAUR-At.UDPGDH/UGT1A6 and pGYR/ratCYP1A1, No. 5 in Table 2). […] Each phase was analyzed by UPLC system (FIG. 13).

The mark [3] stands for this setting: budding yeast, 0.5 mM 4-methylumberrferone, 8% (w/v) glucose, 30° C., 24 hrs.

Structures are written as SMILES. Read-outs that look alike come from different tables or passages of the source.

T4 sequence (P10635 whole entry): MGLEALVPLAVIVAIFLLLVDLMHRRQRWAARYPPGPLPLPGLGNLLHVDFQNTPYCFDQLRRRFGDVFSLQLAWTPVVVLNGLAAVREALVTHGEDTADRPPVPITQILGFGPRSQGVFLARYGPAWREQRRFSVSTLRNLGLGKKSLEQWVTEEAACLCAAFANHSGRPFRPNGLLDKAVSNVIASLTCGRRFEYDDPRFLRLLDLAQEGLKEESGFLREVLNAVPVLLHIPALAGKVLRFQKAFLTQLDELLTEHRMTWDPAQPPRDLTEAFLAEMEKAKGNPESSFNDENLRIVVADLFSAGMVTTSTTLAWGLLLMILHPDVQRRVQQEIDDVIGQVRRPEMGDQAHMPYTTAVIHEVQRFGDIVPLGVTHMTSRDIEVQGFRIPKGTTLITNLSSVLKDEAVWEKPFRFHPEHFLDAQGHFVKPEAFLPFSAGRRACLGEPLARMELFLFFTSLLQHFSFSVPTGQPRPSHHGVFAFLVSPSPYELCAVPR
Experimental for hUGT1A1: To confirm the production of 7-hydroxycoumarine glucuronide in the resting yeast cells containing UDPGDH and UGT, transformants were cultivated in selection medium at 30° C., 48 hrs, and the resultant yeast cells were suspended with appropriate buffer solution containing 0.1-1 mM 7-hydroxycoumarine and 1-8% (w/v) glucose. After incubation at 30° C., 24 hrs, 2-fold volume of chloroform:methanol (3:1, v/v) was added to reaction medium containing yeast cells. Centrifugation of extracts was separated to upper water and lower organic phase. Lower organic phase were evaporated and redissolved in 200 μl acetonitrile. Each phase was analyzed by UPLC system. Condition of analysis are described below; column: Cosmosil 2.5C18-MS-II (2.0 mm×100 mm, nacalai tesque), flow rate 0.5 ml/min, detection 320 nm, temperature 45° C. Condition of gradient elution: water-acetonitrile with 0.5% (v/v) trifluoroacetic acid, 10% (v/v) acetonitrile (4 min), 10-70% acetonitrile (6 min), 70-10% acetonitrile (2 min), 10% acetonitrile (4 min).
To confirm the production of quercetin glucuronide in the resting yeast cells containing UDPGDH and UGT (pAUR/At.UDPGDH+pGYR/hUGT1A1), transformants were cultivated in selection medium at 30° C., 48 hrs, and the resultant yeast cells were suspended with 0.1 M potassium phosphate buffer (pH 7.4) containing 0.2 mM quercetin and 8% (w/v) glucose. After incubation at 30° C., 24 hrs, 2-fold volume of chloroform:methanol (3:1, v/v) was added to reaction medium containing yeast cells. Centrifugation of extracts was separated to upper water and lower organic phase. Lower organic phase were evaporated and redissolved in 200 μl acetonitrile. Quercetin glucuronides in yeast cells was isolated and detected by WAKOPAK™ Navi C30-5 (3 mm×150 mm, Wako Chemical)-column-HPLC system with followed condition; flow rate; 0.4 ml/min, detection; 370 nm, temperature 37° C. Condition of gradient elution: water-acetonitrile with 0.5% (v/v) phosphoric acid, 18% (v/v) acetonitrile (10 min), 18-55% acetonitrile (10 min), 55% acetonitrile (5 min).
To compare the production ability of glucuronide in budding (Saccharomyces cerevisiae) and fission yeast (Schizosaccharomyces pombe) containing UDPGDH and UGT, several transformants (No. 4 in Table 2 and transformant with N-terminal modified UGT1A1) were selected for the assay. These transformants were cultivated in selection medium at 30° C., 48 hrs, and the resultant yeast cells were suspended with appropriate buffer solution containing 0.5 mM 4-methylumberrferone and 8% (w/v) glucose. After incubation at 30° C., 24 hrs, 2-fold volume of chloroform:methanol (3:1, v/v) was added to reaction medium containing yeast cells. Centrifugation of extracts was separated to upper water and lower organic phase. Lower organic phase were evaporated and redissolved in 200 μl acetonitrile. Each phase was analyzed by UPLC system.
Condition of analysis are described below; column: COSMOSIL™ 2.5C18-MS-II (2.0 mm×100 mm, Nacalai Tesque), flow rate 0.5 ml/min, detection 320 nm, temperature 45° C. Condition of gradient elution: water-acetonitrile with 0.1% (v/v) trifluoroacetic acid, 10% acetonitrile (4 min), 10-70% acetonitrile (6 min), 70-10% acetonitrile (2 min), 10% acetonitrile (3 min).

With `Cc1cc(=O)oc2cc(O[C@@H]3O[C@H](C(=O)O)[C@@H](O)[C@H](O)[C@H]3O)ccc12.O` [4-metylumberrferone glucuronide, 4-methylumberrferone glucuronide], the production of glucuronide on UGT1A1 was 1.8 µM/day; at hUGT1A1 (setting [3]), 20.2 µM/day; at UGT1A6 [1] (setting [3]) it was 195.7 µM/day; at UGT1A6 [2] it was 3.5 µM/day. Moreover, the values for the production of glucuronide per biomass dry weight at UGT1A1 and on hUGT1A1 (budding yeast) were 0.14 µmol/day/g dry weight and 2.6 µmol/day/g dry weight, respectively. In addition, the “production ratio of glucuronide, budding yeast higher than fission yeast” value at hUGT1A1 turned out to be 10; at UGT1A6 [1] it was 50.
Regarding `CCOc1ccc2ccc(=O)oc2c1` [7-ethoxycoumarine], at CYP2D6 and UGT1A8, the “metabolites formed (FIG. 15)” value was “metabolized to 7-hydroxycoumarine or 3-hydroxy-7-ethoxycoumarine by human P450 2D6”. Moreover, at ratCYP1A1 and UGT1A6, the “sequential P450-UGT metabolism (FIG. 13)” value is “deethylated by P4501A1 and the resultant 7-hydroxycoumarine (●) was glucuronidated by UGT1A6 to its glucuronide”.

These data come from patent publication US8741602B2, “Method for producing glucuronic acid conjugate using Saccharomyces cerevisiae” (Toyama Prefecture, priority 2010, dated 2014).
